According to ChEMBL document CHEMBL1759983, “Design and SAR of macrocyclic Hsp90 inhibitors with increased metabolic stability and potent cell-proliferation activity” (Bioorg Med Chem Lett, 2011):
Values after ≈ are worked out from the molar mass of the structure shown.

Tests used:
[1] = Aqueous solubility of the compound; assay type: physicochemical
HCT-116 = experiment: Antiproliferative activity against human HCT116 cells measured on day 4 by Cell titer-glo assay; assay type: functional, cell-based
[2] = target: Heat shock protein HSP 90-alpha (Homo sapiens, UniProt P07900)
Description: Inhibition of Hsp90alpha after 3 hrs by fluorescence polarization assay

in vitro = conditions: rat, liver microsomes

Row | Structure (SMILES) | solubility [1] [µg/mL] | EC50 (HCT-116; Homo sapiens, HCT-116, 96 h) [nM] | IC50 [2] [nM] | half-life (in vitro) [min] | EC50 (HCT-116; hct-116) [nM]
1 | Cc1c2c(n3c1CCCNC[C@H](C)Nc1cc-3ccc1C(N)=O)CC(C)(C)CC2=O | > 100 | – | – | – | –
2 | Cc1c2c(n3c1CCNCCCNc1cc-3ccc1C(N)=O)CC(C)(C)CC2=O | – | 8140 | 400 | – | –
3 | Cc1c2c(n3c1CCNCCNc1cc-3ccc1C(N)=O)CC(C)(C)CC2=O | > 100 | – | 12400 | 15 | –
4 | Cc1c2c(n3c1CCCNCC(C)(C)CNc1cc-3ccc1C(N)=O)CC(C)(C)CC2=O | 6 (≈ 13.7 µM) | – | 290 | 3 | 210
5 | Cc1c2c(n3c1CCCNC(C)(C)CNc1cc-3ccc1C(N)=O)CC(C)(C)CC2=O | 52 (≈ 123 µM) | – | 140 | 15 | 80
6 | Cc1c2c(n3c1CCCNCCNc1cc-3ccc1C(N)=O)CC(C)(C)CC2=O | 35 (≈ 88.7 µM) | 820 | 920 | > 30 | –
7 | Cc1c2c(n3c1CCNCC[C@H](C)Nc1cc-3ccc1C(N)=O)CC(C)(C)CC2=O | 67 (≈ 164 µM) | – | – | – | –
8 | Cc1c2c(n3c1CCCNCC(C)(C)Nc1cc-3ccc1C(N)=O)CC(C)(C)CC2=O | 45 (≈ 106 µM) | 620 | 830 | > 30 | –
9 | Cc1c2c(n3c1CCNCC(C)CNc1cc-3ccc1C(N)=O)CC(C)(C)CC2=O (stereo not drawn) | 39 (≈ 95.5 µM) | 250 | 360 | 5 | –
10 | Cc1c2c(n3c1CCNCC(O)CNc1cc-3ccc1C(N)=O)CC(C)(C)CC2=O (stereo not drawn) | 70 (≈ 171 µM) | 600 | 320 | 10 | –
11 | Cc1c2c(n3c1CCNCCOCCNc1cc-3ccc1C(N)=O)CC(C)(C)CC2=O | 73 (≈ 172 µM) | 830 | 570 | 28 | –
12 | Cc1c2c(n3c1CNCCCCNc1cc-3ccc1C(N)=O)CC(C)(C)CC2=O | 18 (≈ 45.6 µM) | > 5000 | > 5000 | 18 | –
13 | Cc1c2c(n3c1CNCCC[C@H](C)Nc1cc-3ccc1C(N)=O)CC(C)(C)CC2=O | 16 (≈ 39.2 µM) | > 5000 | > 5000 | 7 | –
14 | Cc1c2c(n3c1CCC(C)NCCNc1cc-3ccc1C(N)=O)CC(C)(C)CC2=O (stereo not drawn) | 69 (≈ 169 µM) | 940 | 1240 | 26 | –
15 | Cc1c2c(n3c1CC[C@@H](C)N[C@H](C)CNc1cc-3ccc1C(N)=O)CC(C)(C)CC2=O | > 100 | 30 | 90 | 15 | –
16 | Cc1c2c(n3c1CC[C@H](C)N[C@H](C)CNc1cc-3ccc1C(N)=O)CC(C)(C)CC2=O | 58 (≈ 137 µM) | 360 | 430 | 7 | –
17 | Cc1c2c(n3c1CCCN(C)C[C@H](C)Nc1cc-3ccc1C(N)=O)CC(C)(C)CC2=O | 31 (≈ 73.4 µM) | – | 150 | 11 | 80
18 | CC(=O)N1CCc2c(C)c3c(n2-c2ccc(C(N)=O)c(c2)N[C@@H](C)CC1)CC(C)(C)CC3=O | 19 (≈ 42.2 µM) | 150 | 110 | 9 | –
